Test results taken from ChEMBL document CHEMBL4673259, “Discovery of isoquinolinone and naphthyridinone-based inhibitors of poly(ADP-ribose) polymerase-1 (PARP1) as anticancer agents: Structure activity relationship and preclinical characterization” (Bioorg Med Chem, 2020).
Calls of active or inactive are those of the source. The calls are words filed in the database; no cut-off is given here.

Experiments:
MDA-MB-436 [1] = assay: Potentiation of anticancer activity against human MDA-MB-436 cells harboring BRCA mutant xenografted in SCID/nude mouse assessed as tumor growth inhibition at 0.15 mg/kg, po bid for 12 days co-administered with TMZ measured after drug administration cessation; assay type: functional, organism-based; conditions: time 12.0 day
[2] = Cmax in BALB/c mouse at 10 mg/kg, po measured up to 24 hrs by LC-MS/MS analysis; assay type: ADME, organism-based; design: route oral, dose 10 mg/kg, time <=24; conditions: in vivo
[3] = Clearance in BALB/c mouse at 1 mg/kg, iv measured up to 24 hrs by LC-MS/MS analysis; assay type: ADME, organism-based; conditions: in vivo
[4] = Half life in BALB/c mouse at 1 mg/kg, iv measured up to 24 hrs by LC-MS/MS analysis; assay type: ADME, organism-based; conditions: in vivo
[5] = AUClast in BALB/c mouse at 1 mg/kg, iv measured up to 24 hrs by LC-MS/MS analysis; assay type: ADME, organism-based; design: route intravenous, dose 1 mg/kg, time <=24; conditions: in vivo
[6] = Toxicity in rat assessed as NOAEL for CNS effect; conditions: in vivo
[7] = Protein binding in rat plasma; assay type: ADME, cell-free; conditions: read-out: PPB (converted)
SK-ES1 = assay: Antitumor activity against human SK-ES-1 cells xenografted in SCID/nude mouse assessed as tumor growth inhibition at 0.45 mg/kg, po bid measured up to 5 weeks post drug administration; assay type: functional; conditions: 840 h, time weeks <=5
[8] = Toxicity against SCID/nude mouse xenografted with human SK-ES-1 cells harboring EWSF1 translocation assessed as body weight loss at 0.15 mg/kg, po bid for 12 days co-administered with 35 mg/kg, po TMZ; assay type: organism-based; conditions: in vivo, 288 h, time 12 day
CAPAN-1 = assay: Potentiation of anticancer activity against human CAPAN-1 cells harboring BRCA mutant xenografted in SCID/nude mouse assessed as tumor growth inhibition at 0.15 mg/kg, po bid for 12 days co-administered with TMZ measured up to 9 weeks post-drug administration; assay type: functional; conditions: CAPAN-1, po, 288 h, time 12 day
MDA-MB-436 [9] = assay: Anticancer activity against human MDA-MB-436 cells harboring BRCA mutant xenografted in SCID/nude mouse assessed as tumor growth regression at 0.05 mg/kg, po bid and measured up to 5 weeks post-drug administration; assay type: functional; conditions: MDA-MB-436, po, 840 h, time weeks <=5
[10] = Protein binding in dog plasma; assay type: ADME, cell-free, Canis lupus familiaris; conditions: read-out: PPB (converted)
[11] = target: Poly [ADP-ribose] polymerase tankyrase-1 (Homo sapiens, UniProt O95271); assay: Inhibition of TNKS1 (unknown origin)
[12] = target: Adrenergic receptor alpha-1 (Homo sapiens) (UniProt P35348+P25100+P35368); assay: Binding affinity to alpha1 adrenoceptor (unknown origin) at 10 uM; assay type: protein assay
[13] = Oral bioavailability in BALB/c mouse at 10 mg/kg measured up to 24 hrs by LC-MS/MS analysis; assay type: ADME, organism-based; conditions: in vivo
MDA-MB-436 [14] = assay: Anticancer activity against human MDA-MB-436 cells harboring BRCA mutant xenografted in SCID/nude mouse assessed as tumor growth regression at 0.15 mg/kg, po bid and measured up to 5 weeks post-drug administration; assay type: functional; conditions: MDA-MB-436, po, 840 h, time weeks <=5
[15] = Volume of distribution at steady state in BALB/c mouse at 1 mg/kg, iv measured up to 24 hrs by LC-MS/MS analysis; assay type: ADME, organism-based; conditions: in vivo, read-out: Vdss
[16] = Toxicity against SCID/nude mouse xenografted with human MDA-MB-436 cells harboring BRCA mutant assessed as body weight loss at 0.15 mg/kg, po bid for 12 days co-administered with 35 mg/kg, po TMZ; assay type: organism-based; conditions: in vivo, 288 h, time 12 day
CYP2C9 = CYP2C9 (Homo sapiens, UniProt P11712); assay: Inhibition of CYP2C9 (unknown origin) at 10 uM relative to control; assay type: ADME
MDA-MB-436 [17] = assay: Potentiation of anticancer activity against human MDA-MB-436 cells harboring BRCA mutant xenografted in SCID/nude mouse assessed as tumor growth inhibition at 0.15 mg/kg, po bid for 12 days co-administered with […] measured up to 9 weeks post drug administration; assay type: functional; conditions: MDA-MB-436, po, time weeks <=9
HEK293 = assay: Cytotoxicity against HEK293 cells at 1000 nM relative to control; assay type: cell-based; conditions: human, hek293, 1 µM
MDA-MB-436 [18] = assay: Potentiation of anticancer activity against human MDA-MB-436 cells harboring BRCA mutant xenografted in SCID/nude mouse assessed as tumor growth inhibition at 0.15 mg/kg, po bid for 12 days co-administered with TMZ measured up to 9 weeks post drug administration; assay type: functional; conditions: MDA-MB-436, po, 288 h, time 12 day
[19] = Toxicity in rat assessed as NOAEL for respiratory effect; conditions: in vivo
[20] = Cmax in BALB/c mouse at 1 mg/kg, iv measured up to 24 hrs by LC-MS/MS analysis; assay type: ADME, organism-based; design: route intravenous, dose 1 mg/kg, time <=24; conditions: in vivo
[21] = target: 5-hydroxytryptamine receptor 2B (Homo sapiens) (UniProt P41595); assay: Displacement of [3H]mesulergine from human recombinant 5-HT2B receptor at 10 uM incubated for 60 mins by radiometric scintillation analysis
CYP2D6 = CYP2D6 (Homo sapiens, UniProt P10635); assay: Inhibition of CYP2D6 (unknown origin) at 10 uM relative to control; assay type: ADME
MCF7 = assay: Cytotoxicity against human MCF7 cells harboring wild type BRCA at 1000 nM relative to control; assay type: cell-based; conditions: mcf7, 1 µM
[22] = Metabolic stability of the compound in human plasma measured up to 4 hrs; assay type: ADME, cell-free; conditions: read-out: Stabilty
[23] = Protein binding in human plasma; assay type: ADME, cell-free; conditions: read-out: PPB (converted)
[24] = AUClast in BALB/c mouse at 10 mg/kg, po measured up to 24 hrs by LC-MS/MS analysis; assay type: ADME, organism-based; design: route oral, dose 10 mg/kg, time <=24; conditions: in vivo
[25] = Protein binding in mouse plasma; assay type: ADME, cell-free; conditions: read-out: PPB (converted)
[26] = Metabolic stability of the compound in mouse plasma measured up to 4 hrs; assay type: ADME, cell-free; conditions: read-out: Stabilty
[27] = target: Mitogen-activated protein kinase kinase kinase 14 (Homo sapiens) (UniProt Q99558); assay: Inhibition of NIK (unknown origin) at 10 uM
CYP2B6 = CYP2B6 (Homo sapiens, UniProt P20813); assay: Inhibition of CYP2B6 (unknown origin) at 10 uM relative to control; assay type: ADME
[28] = Metabolic stability of the compound in dog plasma measured up to 4 hrs; assay type: ADME, cell-free, Canis lupus familiaris; conditions: read-out: Stabilty
[29] = target: Poly [ADP-ribose] polymerase 1 (Homo sapiens, UniProt P09874); assay: Inhibition of N-terminal GST-tagged human full length PARP1 (2 to 1041 residues) expressed in baculovirus infected Sf9 cells using histone mixture (H2A and H2B) and biotinylated NAD+ as substrate in presence of activated DNA incubated for 60 mins by chemiluminescence assay
[30] = Toxicity against SCID/nude mouse xenografted with human CAPAN-1 cells harboring BRCA mutant assessed as body weight loss at 0.15 mg/kg, po bid for 12 days co-administered with 35 mg/kg, po TMZ; assay type: organism-based; conditions: in vivo, 288 h, time 12 day
[31] = Metabolic stability of the compound in rat plasma measured up to 4 hrs; assay type: ADME, cell-free; conditions: read-out: Stabilty
[32] = target: Poly [ADP-ribose] polymerase tankyrase-2 (Homo sapiens, UniProt Q9H2K2); assay: Inhibition of TNKS2 (unknown origin)
Sequence of Poly [ADP-ribose] polymerase tankyrase-2 (Q9H2K2 whole entry): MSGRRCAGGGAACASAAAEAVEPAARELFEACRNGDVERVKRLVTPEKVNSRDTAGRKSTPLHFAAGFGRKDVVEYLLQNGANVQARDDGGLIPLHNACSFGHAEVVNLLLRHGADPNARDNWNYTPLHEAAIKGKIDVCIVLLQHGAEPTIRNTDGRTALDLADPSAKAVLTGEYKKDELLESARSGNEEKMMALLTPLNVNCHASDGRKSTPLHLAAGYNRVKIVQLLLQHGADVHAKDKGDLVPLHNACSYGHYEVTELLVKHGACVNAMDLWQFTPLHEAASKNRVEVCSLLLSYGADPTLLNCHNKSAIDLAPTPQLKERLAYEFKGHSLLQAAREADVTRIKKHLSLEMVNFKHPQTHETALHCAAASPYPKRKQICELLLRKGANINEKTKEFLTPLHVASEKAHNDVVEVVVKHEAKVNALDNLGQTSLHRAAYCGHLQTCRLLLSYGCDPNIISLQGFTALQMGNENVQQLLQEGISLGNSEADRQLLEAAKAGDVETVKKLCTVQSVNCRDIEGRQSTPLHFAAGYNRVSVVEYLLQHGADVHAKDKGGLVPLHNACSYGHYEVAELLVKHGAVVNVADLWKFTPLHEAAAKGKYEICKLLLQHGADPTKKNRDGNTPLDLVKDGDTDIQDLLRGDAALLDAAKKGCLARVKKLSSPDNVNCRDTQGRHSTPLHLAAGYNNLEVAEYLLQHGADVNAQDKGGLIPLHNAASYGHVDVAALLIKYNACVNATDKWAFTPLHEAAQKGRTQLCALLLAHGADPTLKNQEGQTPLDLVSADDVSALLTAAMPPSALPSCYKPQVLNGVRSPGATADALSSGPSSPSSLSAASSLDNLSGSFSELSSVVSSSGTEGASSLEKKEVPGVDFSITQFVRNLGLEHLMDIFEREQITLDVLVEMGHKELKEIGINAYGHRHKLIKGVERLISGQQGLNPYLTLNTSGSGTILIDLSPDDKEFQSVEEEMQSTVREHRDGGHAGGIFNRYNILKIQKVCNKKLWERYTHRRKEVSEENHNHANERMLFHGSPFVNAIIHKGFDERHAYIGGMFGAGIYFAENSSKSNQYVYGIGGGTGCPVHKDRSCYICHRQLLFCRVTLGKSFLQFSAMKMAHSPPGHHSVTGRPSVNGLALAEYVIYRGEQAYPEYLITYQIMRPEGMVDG

Sequence of Poly [ADP-ribose] polymerase 1 (P09874 whole entry, the tested form may be a part): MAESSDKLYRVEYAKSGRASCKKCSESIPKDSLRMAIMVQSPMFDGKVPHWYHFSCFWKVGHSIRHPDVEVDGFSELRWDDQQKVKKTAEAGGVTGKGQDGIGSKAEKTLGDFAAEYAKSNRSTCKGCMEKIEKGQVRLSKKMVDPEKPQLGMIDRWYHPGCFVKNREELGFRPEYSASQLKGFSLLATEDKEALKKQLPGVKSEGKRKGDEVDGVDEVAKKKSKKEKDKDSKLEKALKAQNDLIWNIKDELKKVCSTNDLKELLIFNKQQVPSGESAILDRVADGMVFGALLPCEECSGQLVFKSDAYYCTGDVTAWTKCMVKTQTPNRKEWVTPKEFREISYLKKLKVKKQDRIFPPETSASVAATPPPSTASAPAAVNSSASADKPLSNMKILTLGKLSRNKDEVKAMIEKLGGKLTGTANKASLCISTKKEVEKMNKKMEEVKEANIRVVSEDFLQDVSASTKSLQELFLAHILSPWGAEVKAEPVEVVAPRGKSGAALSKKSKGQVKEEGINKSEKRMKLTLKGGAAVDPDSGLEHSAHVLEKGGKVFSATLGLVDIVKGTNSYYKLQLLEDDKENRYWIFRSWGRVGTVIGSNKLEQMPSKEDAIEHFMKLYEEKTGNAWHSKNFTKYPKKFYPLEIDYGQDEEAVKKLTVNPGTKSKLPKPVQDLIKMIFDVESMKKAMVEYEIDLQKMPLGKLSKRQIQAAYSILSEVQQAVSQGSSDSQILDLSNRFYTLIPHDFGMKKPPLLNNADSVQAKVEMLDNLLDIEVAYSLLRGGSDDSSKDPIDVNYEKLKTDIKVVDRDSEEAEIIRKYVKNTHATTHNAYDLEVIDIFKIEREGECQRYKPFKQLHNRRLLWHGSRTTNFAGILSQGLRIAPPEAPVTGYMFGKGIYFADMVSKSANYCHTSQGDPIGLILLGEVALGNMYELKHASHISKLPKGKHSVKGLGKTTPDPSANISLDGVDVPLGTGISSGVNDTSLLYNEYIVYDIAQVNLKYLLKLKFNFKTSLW
Sequence of Poly [ADP-ribose] polymerase tankyrase-1 (O95271 whole entry): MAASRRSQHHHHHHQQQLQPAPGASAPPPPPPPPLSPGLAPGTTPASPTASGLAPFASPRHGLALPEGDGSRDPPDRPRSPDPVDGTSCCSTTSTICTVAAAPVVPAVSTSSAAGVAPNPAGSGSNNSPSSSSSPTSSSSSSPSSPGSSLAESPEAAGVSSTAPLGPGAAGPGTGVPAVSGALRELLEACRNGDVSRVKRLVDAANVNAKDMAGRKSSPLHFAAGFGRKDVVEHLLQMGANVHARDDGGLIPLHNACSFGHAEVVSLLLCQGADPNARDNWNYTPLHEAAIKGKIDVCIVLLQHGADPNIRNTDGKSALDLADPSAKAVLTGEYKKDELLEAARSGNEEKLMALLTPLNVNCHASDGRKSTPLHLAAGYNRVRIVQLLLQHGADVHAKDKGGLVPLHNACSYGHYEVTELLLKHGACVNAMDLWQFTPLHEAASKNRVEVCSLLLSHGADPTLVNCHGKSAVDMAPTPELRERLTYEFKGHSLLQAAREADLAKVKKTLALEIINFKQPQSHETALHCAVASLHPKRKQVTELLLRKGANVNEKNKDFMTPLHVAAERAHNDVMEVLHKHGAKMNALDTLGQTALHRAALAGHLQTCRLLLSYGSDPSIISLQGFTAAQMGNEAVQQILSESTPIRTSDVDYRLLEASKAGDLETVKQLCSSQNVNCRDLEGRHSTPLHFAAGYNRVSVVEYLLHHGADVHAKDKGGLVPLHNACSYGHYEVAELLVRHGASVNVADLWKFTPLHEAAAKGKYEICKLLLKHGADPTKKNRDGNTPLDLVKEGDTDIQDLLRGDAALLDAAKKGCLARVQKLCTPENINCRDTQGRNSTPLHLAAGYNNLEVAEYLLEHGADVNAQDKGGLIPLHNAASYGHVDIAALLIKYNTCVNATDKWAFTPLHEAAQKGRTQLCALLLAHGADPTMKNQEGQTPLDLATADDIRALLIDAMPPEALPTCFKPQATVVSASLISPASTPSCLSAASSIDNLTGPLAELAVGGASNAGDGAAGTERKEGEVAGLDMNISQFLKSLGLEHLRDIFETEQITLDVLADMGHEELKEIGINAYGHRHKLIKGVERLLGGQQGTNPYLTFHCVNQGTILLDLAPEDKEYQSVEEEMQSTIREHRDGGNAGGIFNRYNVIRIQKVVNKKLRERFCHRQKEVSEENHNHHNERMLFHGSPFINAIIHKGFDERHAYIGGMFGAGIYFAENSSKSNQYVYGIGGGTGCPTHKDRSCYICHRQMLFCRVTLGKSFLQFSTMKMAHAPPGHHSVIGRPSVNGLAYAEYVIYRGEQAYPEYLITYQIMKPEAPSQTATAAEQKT
Sequence of CYP2B6 (P20813 whole entry): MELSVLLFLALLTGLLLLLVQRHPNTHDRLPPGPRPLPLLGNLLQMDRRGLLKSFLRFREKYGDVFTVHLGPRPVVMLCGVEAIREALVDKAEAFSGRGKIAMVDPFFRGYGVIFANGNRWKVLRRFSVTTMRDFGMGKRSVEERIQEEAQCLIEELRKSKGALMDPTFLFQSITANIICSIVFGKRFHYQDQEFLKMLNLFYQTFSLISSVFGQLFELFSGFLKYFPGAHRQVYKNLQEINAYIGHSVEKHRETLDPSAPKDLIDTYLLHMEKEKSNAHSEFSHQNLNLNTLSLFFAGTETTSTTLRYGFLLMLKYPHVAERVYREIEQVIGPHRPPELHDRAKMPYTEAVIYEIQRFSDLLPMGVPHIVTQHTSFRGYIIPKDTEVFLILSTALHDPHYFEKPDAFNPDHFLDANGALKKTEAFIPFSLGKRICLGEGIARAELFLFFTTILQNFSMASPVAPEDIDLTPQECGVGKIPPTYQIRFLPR
Sequence of Mitogen-activated protein kinase kinase kinase 14 (Homo sapiens) (Q99558 whole entry, looked up): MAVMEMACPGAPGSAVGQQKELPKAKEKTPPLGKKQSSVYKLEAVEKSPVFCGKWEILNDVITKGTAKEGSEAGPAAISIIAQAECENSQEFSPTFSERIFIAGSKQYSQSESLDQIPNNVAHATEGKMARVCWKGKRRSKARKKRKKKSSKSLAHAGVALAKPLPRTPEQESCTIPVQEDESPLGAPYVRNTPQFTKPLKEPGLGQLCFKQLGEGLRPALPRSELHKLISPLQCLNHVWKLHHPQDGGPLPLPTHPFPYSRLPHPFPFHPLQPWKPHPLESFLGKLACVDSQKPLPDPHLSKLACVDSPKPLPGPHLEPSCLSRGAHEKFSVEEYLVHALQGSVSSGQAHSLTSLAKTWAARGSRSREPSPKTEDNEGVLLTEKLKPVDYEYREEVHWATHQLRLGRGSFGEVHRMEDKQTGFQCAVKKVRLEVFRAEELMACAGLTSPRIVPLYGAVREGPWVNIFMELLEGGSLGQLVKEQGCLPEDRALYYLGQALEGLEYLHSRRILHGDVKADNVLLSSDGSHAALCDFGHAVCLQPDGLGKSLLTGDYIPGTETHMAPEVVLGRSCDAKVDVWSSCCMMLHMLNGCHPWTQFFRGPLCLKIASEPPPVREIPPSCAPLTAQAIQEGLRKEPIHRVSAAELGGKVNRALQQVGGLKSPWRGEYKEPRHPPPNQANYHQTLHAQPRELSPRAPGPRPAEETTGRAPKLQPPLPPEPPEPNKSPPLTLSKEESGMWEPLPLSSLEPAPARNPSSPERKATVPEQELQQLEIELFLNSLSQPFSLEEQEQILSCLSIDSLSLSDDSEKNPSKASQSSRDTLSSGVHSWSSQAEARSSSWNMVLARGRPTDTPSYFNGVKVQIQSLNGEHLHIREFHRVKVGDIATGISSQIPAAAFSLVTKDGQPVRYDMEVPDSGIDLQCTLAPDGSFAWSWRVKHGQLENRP

- Cmax [2]: 31 µM
- clearance [3]: 0.4 mL/min/kg
- half-life [4]: 5.1 h
- AUC(0-t) at 24 h [5]: 94 µM·h
- fraction unbound [7]: 0.056
- fraction unbound [10]: 0.125
- IC50 [11]: 0.769 µM
- Activity [12]: 70%
- bioavailability [13]: 43%
- Vd [15]: 0.2 L/kg
- inhibition at 10 µM (CYP2C9): ≤ 23%
- Cmax [20]: 11 µM
- Activity [21]: 70%
- inhibition at 10 µM (CYP2D6): ≤ 23%
- remaining at 4 h [22]: 80%
- fraction unbound [23]: 0.017
- AUC(0-t) at 24 h [24]: 403 µM·h
- fraction unbound [25]: 0.074
- remaining at 4 h [26]: 80%
- inhibition [27]: 65%
- inhibition at 10 µM (CYP2B6): ≤ 23%
- remaining at 4 h [28]: 80%
- IC50 [29]: 0.0011 µM
- remaining at 4 h [31]: 80%
- IC50 [32]: 0.074 µM
SMILES: N#Cc1ccc(N2CCN([C@H]3C=C(c4cc5ncccc5c(=O)[nH]4)CC3)CC2)cc1
- Activity (MDA-MB-436 [1]): Active
- NOAEL [6]: 30 mg/kg/day
- inhibition in vivo at 0.45 mg/kg (SK-ES1): 20%
- Activity [8]: Non-Toxic
- inhibition in vivo at 0.15 mg/kg (CAPAN-1): 88%
- inhibition in vivo at 0.05 mg/kg (MDA-MB-436 [9]): 83%
- inhibition in vivo at 0.15 mg/kg (MDA-MB-436 [14]): 79%
- Activity [16]: Non-Toxic
- inhibition in vivo at 0.15 mg/kg (MDA-MB-436 [17]): > 90%
- Activity (HEK293): 72%
- inhibition in vivo at 0.15 mg/kg (MDA-MB-436 [18]): > 90%
- NOAEL [19]: 30 mg/kg/day
- Activity (MCF7): 36%
- Activity [30]: Non-Toxic
